Our source for the GI50 and TGI values is PubChem BioAssay (NCI).

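Exposure lasted 48 hours, with cells grown in 96-well plates and compounds tested at five concentrations. Here, GI50 denotes the concentration required for 50% inhibition of growth. Definition used: TGI = concentration required for complete inhibition of growth.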

Some test systems named below: A549 NSCLC; EKVX NSCLC; HCT-116 colon; MOLT-4 leukemia; PC-3 prostate; SF-268 CNS; SF-295 CNS; SF-539 CNS; SNB-75 CNS; SW-620 colon.
Common to all, as to assay: inhibition of tumour cell growth, NCI panel, 48 h

For `Cc1ccc(CCC(=O)Nc2ncc(Cc3cc(Cl)ccc3Cl)s2)o1`, the GI50 with A549 NSCLC was 0.376 µM; in the experiment with EKVX NSCLC, 0.466 µM; in the experiment with HCT-116 colon, 0.0696 µM; in the experiment with MOLT-4 leukemia it was 0.222 µM; in the experiment on PC-3 prostate, 0.244 µM; with SF-268 CNS it was 1.59 µM. Moreover, the GI50 with SF-295 CNS is 0.176 µM; with SF-539 CNS, 0.218 µM; in the experiment with SNB-75 CNS, 0.206 µM; in the experiment with SW-620 colon, 0.0694 µM. Further, the TGI with A549 NSCLC is > 58.8 µM; with EKVX NSCLC it was > 100 µM; in the experiment on HCT-116 colon it was 2.14 µM; in the experiment on MOLT-4 leukemia it was > 44.2 µM; with PC-3 prostate, > 42.8 µM; in the experiment with SF-268 CNS it was > 54.6 µM. The TGI in the experiment with SF-295 CNS is 2.15 µM; in the experiment with SF-539 CNS it was 0.712 µM; in the experiment with SNB-75 CNS, 2.16 µM; in the experiment with SW-620 colon it was > 100 µM.
On to `C=C1C(=O)OC(CCCCCCCC)C1C(=O)O` (stereo not given), for which the GI50 with A549 NSCLC was 23.6 µM; with EKVX NSCLC, 16.1 µM; in the experiment with HCT-116 colon it was 11.9 µM; in the experiment on MOLT-4 leukemia, 22.2 µM; in the experiment on PC-3 prostate, 20.2 µM; with SF-268 CNS, 19.5 µM. Moreover, the GI50 was 17.6 µM in the experiment on SF-295 CNS, 17 µM in the experiment with SF-539 CNS, 16 µM with SNB-75 CNS and 15.2 µM in the experiment with SW-620 colon. Further, the TGI in the experiment on A549 NSCLC was > 67.6 µM; in the experiment on EKVX NSCLC, 31.2 µM; with HCT-116 colon, 26.2 µM; in the experiment with MOLT-4 leukemia it was 54 µM; in the experiment on PC-3 prostate, 40 µM; with SF-268 CNS, 39.6 µM. The TGI in the experiment with SF-295 CNS is 37.6 µM; in the experiment on SF-539 CNS it was 31.6 µM; in the experiment on SNB-75 CNS, 34.6 µM; with SW-620 colon, 30.7 µM.
In the case of `Cc1nc2c(cnn2-c2ccnc3c(C(F)(F)F)cccc23)c(=O)o1`, the GI50 in the experiment with A549 NSCLC, in the experiment with EKVX NSCLC, in the experiment on HCT-116 colon, in the experiment on MOLT-4 leukemia, in the experiment with PC-3 prostate and in the experiment with SF-268 CNS was > 100 µM each time. Also, the GI50 in the experiment with SF-295 CNS, with SF-539 CNS, in the experiment with SNB-75 CNS and in the experiment with SW-620 colon was > 100 µM in each case. Also, the TGI in the experiment on A549 NSCLC, with EKVX NSCLC, in the experiment with HCT-116 colon, in the experiment with MOLT-4 leukemia, with PC-3 prostate and in the experiment on SF-268 CNS was > 100 µM in each case. Besides, the TGI in the experiment with SF-295 CNS, in the experiment with SF-539 CNS, in the experiment on SNB-75 CNS and with SW-620 colon was > 100 µM each time.
Take `CC1(CCCC2(C)CCNC2=O)OCCO1` (stereo not given): the TGI in the experiment with A549 NSCLC, in the experiment on EKVX NSCLC, in the experiment on HCT-116 colon, in the experiment with MOLT-4 leukemia, in the experiment with PC-3 prostate and in the experiment with SF-268 CNS was > 10 µM throughout. Further, the TGI in the experiment on SF-295 CNS, with SF-539 CNS, with SNB-75 CNS and in the experiment on SW-620 colon was > 10 µM in each case.
As for `O=C(CCCCCCc1nc2ccc(Br)cc2[nH]1)NO`, the GI50 in the experiment on A549 NSCLC was 0.578 µM; with EKVX NSCLC, 1.55 µM; with HCT-116 colon, 0.202 µM; with MOLT-4 leukemia, 0.342 µM; with PC-3 prostate it was 0.796 µM; in the experiment with SF-268 CNS, 0.67 µM. Besides, the GI50 in the experiment on SF-295 CNS was 0.471 µM; with SF-539 CNS, 0.97 µM; with SNB-75 CNS, 0.419 µM; with SW-620 colon it was 0.266 µM. For the same compound, the TGI in the experiment with A549 NSCLC was 11.3 µM; in the experiment on EKVX NSCLC it was 97.1 µM; in the experiment with HCT-116 colon it was 1.03 µM; with MOLT-4 leukemia it was > 100 µM; in the experiment on PC-3 prostate, > 100 µM; in the experiment on SF-268 CNS, 3.3 µM. The TGI in the experiment on SF-295 CNS was 2.84 µM; with SF-539 CNS it was 31.3 µM; with SNB-75 CNS, > 100 µM; with SW-620 colon it was 1.04 µM.
For `CC/C=C/[C@@H]1C=C[C@@H]2CCC[C@H]2[C@@H]1CC[C@H](O)[C@H](C)N`, the GI50 in the experiment on A549 NSCLC is 2.26 µM; with EKVX NSCLC, 15.2 µM; in the experiment on HCT-116 colon, 1.53 µM; with MOLT-4 leukemia, 1.72 µM; in the experiment with PC-3 prostate, 2.91 µM; with SF-268 CNS, 1.71 µM. In addition, the GI50 was 1.75 µM with SF-295 CNS, 1.67 µM in the experiment with SF-539 CNS, 0.538 µM with SNB-75 CNS and 1.64 µM in the experiment with SW-620 colon. In addition, the TGI in the experiment on A549 NSCLC was determined as 7.05 µM; with EKVX NSCLC, 31.9 µM; in the experiment on HCT-116 colon, 2.86 µM; in the experiment on MOLT-4 leukemia, 3.68 µM; in the experiment on PC-3 prostate, 12.5 µM; in the experiment with SF-268 CNS, 3.42 µM. In addition, the TGI in the experiment on SF-295 CNS amounted to 3.9 µM; in the experiment with SF-539 CNS it was 3.03 µM; with SNB-75 CNS it was 5.23 µM; with SW-620 colon, 3 µM.
On to `Cc1ncc(C(=O)Nc2ccc(CN3CCN(C)CC3)c(C(F)(F)F)c2)cc1C#Cc1c(N)ncc2ccc(C#N)cc12`, for which the GI50 with A549 NSCLC was 2.82 µM; with EKVX NSCLC it was 0.54 µM; in the experiment with HCT-116 colon, 0.24 µM; in the experiment on MOLT-4 leukemia, 1.03 µM; in the experiment on PC-3 prostate, 4.49 µM; with SF-268 CNS, 1.4 µM. In addition, the GI50 in the experiment with SF-295 CNS is > 26.7 µM; with SF-539 CNS, 1.14 µM; in the experiment on SNB-75 CNS it was 2.38 µM; in the experiment with SW-620 colon it was 0.661 µM. Besides, the TGI in the experiment on A549 NSCLC was 14.4 µM; with EKVX NSCLC, > 22.8 µM; with HCT-116 colon, 5.94 µM; in the experiment with MOLT-4 leukemia, 19.4 µM; in the experiment with PC-3 prostate it was 19.3 µM; with SF-268 CNS, 9.7 µM. For the same compound, the TGI in the experiment with SF-295 CNS was > 50 µM; in the experiment on SF-539 CNS, 8.06 µM; with SNB-75 CNS, 8.93 µM; in the experiment with SW-620 colon, 10.3 µM.
